In series [1] the test system is Rattus norvegicus. The series is described as follows: The compound (30 mg/kg) was tested for its therapeutic effect in an adjuvant-induced arthritis rat. The format is functional.
In series [2] the test system is Mus musculus. Put plainly: The compound (10 mg/kg) administered perorally was tested for its ability to augment IL-10 in LPS-stimulated mice. Type of series: functional.
Series [3] concerns Mus musculus. The series is described as follows: Inhibit tumor necrosis factor alpha production in LPS-stimulated mice after peroral administration of 10 mg/kg. Type of series: functional. As to conditions: route oral.
The nature of series [4]: Partition coefficient (logP). As to conditions: octanol/water.
Series [5] deals with Rattus norvegicus. The series is described as follows: The compound (10 mg/kg) was tested for its therapeutic effect in an adjuvant-induced arthritis rat. The format is functional.
The nature of series [6]: Bioavailability of the compound in rats after administration of 30 mg/kg. Type of series: ADME, organism-based. The note with it: rat, in vivo, read-out: Bioavailabiility.

The structures appear in SMILES notation.

The inhibition in vivo is the drop in the measured response relative to a control, in per cent. Lower therefore signals a response near the control. As usually defined, the logP is the decadic logarithm of the partition coefficient of the neutral form, usually between octanol and water.

With `CC(=O)NCc1ccc(CN2CCN(c3ccc(F)cc3F)CC2)cc1`, in the series on Rattus norvegicus [1], the Therapeutic effect is 173%. In addition, the “IL-10 level (% of control)” value in the series on Mus musculus [2] was 2293%. The compound further yielded an inhibition in vivo at 10 mg/kg in the series with Mus musculus [3] of 91%.

For `CC(=O)NCc1ccc(CN2CCN(c3cnccn3)CC2)cc1`, the “IL-10 level (% of control)” value in the series on Mus musculus [2] came to 334%. In series [4], this compound returned a lipophilicity (logP) of -0.09. The compound also displayed an inhibition in vivo at 10 mg/kg with Mus musculus [3] of 76%.

Consider `CC(=O)NCc1ccc(CN2CCN(c3ncccn3)CC2)cc1`, for which the Therapeutic effect with Rattus norvegicus [5] came out at 46%. Besides, the “IL-10 level (% of control)” value in the series with Mus musculus [2] is listed as 713%. Further, the lipophilicity (logP) in series [4] stood at 0.4. Also, testing at 10 mg/kg in the series with Mus musculus [3] gave an inhibition in vivo of 82%.

`CC(=O)NCc1ccc(CN2CCN(c3cccc(F)n3)CC2)cc1`: the Therapeutic effect in the series on Rattus norvegicus [5] was found to be 144%. The “IL-10 level (% of control)” value with Mus musculus [2] came out at 973%. For the same compound, the lipophilicity (logP) in series [4] is 1.45. For the same compound, the inhibition in vivo at 10 mg/kg with Mus musculus [3] amounted to 85%.

Turning to `CC(=O)NC1(c2ccc(CN3CCN(c4ccccc4)CC3)cc2)CC1`, the “IL-10 level (% of control)” value in the series on Mus musculus [2] is reported as 712%. Besides, the logP in series [4] worked out at 1.9. In the series with Mus musculus [3], the inhibition in vivo at 10 mg/kg came out at 90%.

As to `CC(=O)NC(C)(C)c1ccc(CN2CCN(c3cccc(F)n3)CC2)cc1`, the Therapeutic effect in the series with Rattus norvegicus [5] amounted to 142%. The “IL-10 level (% of control)” value in the series on Mus musculus [2] is 579%. This compound also gave a logP in series [4] of 2.24. In the series with Mus musculus [3], this compound gave an inhibition in vivo at 10 mg/kg of 88%.

On to `CC(=O)NC(C)(C)c1ccc(CN2CCN(c3ncccn3)CC2)cc1`, for which the “IL-10 level (% of control)” value in the series on Mus musculus [2] came to 200%. This compound also came in with a lipophilicity (logP) in series [4] of 1.18. In the series on Mus musculus [3], testing at 10 mg/kg gave an inhibition in vivo of 77%.

With `CC(=O)NCc1ccc(CN2CCN(c3ccccn3)CC2)cc1`, the Therapeutic effect in the series on Rattus norvegicus [5] amounted to 62%. Moreover, the “IL-10 level (% of control)” value in the series on Mus musculus [2] is 642%. In series [4], this compound had a logP of 0.88. The compound also yielded an inhibition in vivo at 10 mg/kg with Mus musculus [3] of 88%.

On to `CC(=O)NCc1ccc(CN2CCN(c3nccn3C)CC2)cc1`, for which, in the series with Mus musculus [2], the “IL-10 level (% of control)” value is 747%. For the same compound, the logP in series [4] was found to be 0.67. The compound also yielded an inhibition in vivo at 10 mg/kg in the series with Mus musculus [3] of 62%.

For the compound `CC(=O)NCc1ccc(CN2CCN(c3ccncc3)CC2)cc1`, in the series with Mus musculus [2], the “IL-10 level (% of control)” value was 198%. For the same compound, in series [4], the logP was determined as 0.51. Moreover, in the series with Mus musculus [3], the inhibition in vivo at 10 mg/kg was found to be 40%.

With `CC(=O)NC1(c2ccc(CN3CCN(c4nccs4)CC3)cc2)CC1`, the Therapeutic effect with Rattus norvegicus [5] was determined as 133%. Besides, the “IL-10 level (% of control)” value in the series on Mus musculus [2] came out at 646%. Further, the lipophilicity (logP) in series [4] came out at 1.58. In addition, 10 mg/kg produced 84% inhibition in vivo with Mus musculus [3].

`CC(=O)NC(C)c1ccc(CN2CCN(c3ncccn3)CC2)cc1` (stereo unspecified): the “IL-10 level (% of control)” value with Mus musculus [2] is on record as 298%. In series [4], the lipophilicity (logP) worked out at 0.93. For the same compound, in the series with Mus musculus [3], the inhibition in vivo at 10 mg/kg was 78%.

With `CC(=O)NCc1ccc(CN2CCN(c3cccnc3)CC2)cc1`, the “IL-10 level (% of control)” value in the series on Mus musculus [2] amounted to 236%. The same compound displayed a logP in series [4] of 0.49. In addition, in the series with Mus musculus [3], the inhibition in vivo at 10 mg/kg is 61%.

As for `CC(=O)NC(C)c1ccc(CN2CCN(c3cccc(F)n3)CC2)cc1` (stereo unspecified), the Therapeutic effect in the series with Rattus norvegicus [5] is on record as 173%. Further, the “IL-10 level (% of control)” value with Mus musculus [2] was found to be 404%. The compound also displayed a logP in series [4] of 1.99. In the series on Mus musculus [3], testing at 10 mg/kg gave an inhibition in vivo of 82%.

As to `CC(=O)NC(C)(C)c1ccc(CN2CCN(c3ccccc3)CC2)cc1`, in the series with Rattus norvegicus [1], the Therapeutic effect came to 80%. The “IL-10 level (% of control)” value in the series with Mus musculus [2] was found to be 561%. In addition, the lipophilicity (logP) in series [4] is 2.83. The same compound showed an inhibition in vivo at 10 mg/kg with Mus musculus [3] of 88%.

For `CC(=O)NCc1ccc(CN2CCN(c3ccccc3)CC2)cc1`, in the series on Rattus norvegicus [1], the Therapeutic effect is recorded as 35%. Also, in the series with Mus musculus [2], the “IL-10 level (% of control)” value is 376%. In series [4], this compound returned a logP of 1.55. In the series on Mus musculus [3], this compound registered an inhibition in vivo at 10 mg/kg of 89%.

As for `CC(=O)NC(C)c1ccc(CN2CCN(c3ccccc3)CC2)cc1` (stereo unspecified), in the series on Mus musculus [2], the “IL-10 level (% of control)” value amounted to 270%. In addition, in series [4], the logP is 2.08. Further, testing at 10 mg/kg in the series on Mus musculus [3] gave an inhibition in vivo of 87%.

For the compound `CC(=O)NCc1ccc(CN2CCN(c3nccs3)CC2)cc1`, the Therapeutic effect in the series with Rattus norvegicus [5] is given as 80%. Besides, the “IL-10 level (% of control)” value in the series with Mus musculus [2] came to 1150%. In series [4], this compound registered a log partition coefficient (logP) of 1.23. This compound also yielded an inhibition in vivo at 10 mg/kg in the series with Mus musculus [3] of 85%.

`CC(=O)NC(C)c1ccc(CN2CCN(c3nccs3)CC2)cc1` (stereo unspecified): in the series with Rattus norvegicus [5], the Therapeutic effect is 101%. The “IL-10 level (% of control)” value in the series with Mus musculus [2] is 621%. Also, the lipophilicity (logP) in series [4] was 1.76. This compound also had an inhibition in vivo at 10 mg/kg in the series on Mus musculus [3] of 84%.

Take `CC(=O)NC1(c2ccc(CN3CCN(c4ncccn4)CC3)cc2)CC1`: the bioavailability in series [6] stood at 76%. For the same compound, in the series on Rattus norvegicus [5], the Therapeutic effect worked out at 163%. Further, the “IL-10 level (% of control)” value in the series with Mus musculus [2] is 419%. Further, the logP in series [4] worked out at 0.75. The compound further registered an inhibition in vivo at 10 mg/kg in the series on Mus musculus [3] of 88%.

As for `CC(=O)NC(C)(C)c1ccc(CN2CCN(c3nccs3)CC2)cc1`, in the series on Rattus norvegicus [5], the Therapeutic effect came out at 131%. In addition, the “IL-10 level (% of control)” value with Mus musculus [2] was determined as 712%. This compound also had a lipophilicity (logP) in series [4] of 2.01. The compound further gave an inhibition in vivo at 10 mg/kg in the series with Mus musculus [3] of 85%.

For the compound `CCC(CC)(NC(C)=O)c1ccc(CN2CCN(c3ccccc3)CC2)cc1`, in the series on Mus musculus [2], the “IL-10 level (% of control)” value is listed as 321%. The compound also returned a lipophilicity (logP) in series [4] of 3.35. The compound also displayed an inhibition in vivo at 10 mg/kg in the series on Mus musculus [3] of 81%.

Regarding `CCC(NC(C)=O)c1ccc(CN2CCN(c3ccccc3)CC2)cc1` (stereo unspecified), the “IL-10 level (% of control)” value with Mus musculus [2] was found to be 222%. For the same compound, in series [4], the lipophilicity (logP) was 2.59. This compound also returned an inhibition in vivo at 10 mg/kg in the series with Mus musculus [3] of 82%.

In the case of `CC(=O)NC1(c2ccc(CN3CCN(c4cccc(F)n4)CC3)cc2)CC1`, the Therapeutic effect in the series on Rattus norvegicus [5] was found to be 55%. Moreover, in the series with Mus musculus [2], the “IL-10 level (% of control)” value is 454%. This compound also returned a logP in series [4] of 1.8. 10 mg/kg produced 84% inhibition in vivo with Mus musculus [3].

These data come from ChEMBL document CHEMBL1133350, “Novel DMARDs on the basis of a new concept of dual cytokine regulation, TNF-alpha suppression and IL-10 augmentation” (Bioorg Med Chem Lett, 2000).
